The record followed here is publication PMC3655251, “Urea Output by L3 Teladorsagia circumcincta and some Properties of Two Urea Producing Enzymes” (Iranian Journal of Parasitology, 2013).

The subject of test [1] is T1, arginine amidinohydrolase.
T1 construct: native enzyme in crude homogenate of L3 larvae, not purified
Put plainly: coupled urease / glutamate dehydrogenase assay, NADH oxidation at […] nm. Format: biochemical, Teladorsagia circumcincta. To be noted: L3 homogenate, 100 mM phosphate buffer, 30 °C, no metal added; read-out: apparent K m.

For test [2], the system named is T2, creatine amidinohydrolase.
T2 construct: native activity in crude homogenate of L3 larvae, not purified; no nematode gene homologue found by the authors
The test is described as above. Format: biochemical, Teladorsagia circumcincta. The conditions noted are these: L3 homogenate, 100 mM phosphate buffer, 30 °C, no metal added; read-out: apparent K m.

Regarding `N=C(N)NCCC[C@H](N)C(=O)O` [arginine], in test [1], the Km is 700 ± 200 µM. As to `CN(CC(=O)O)C(=N)N` [creatine], in test [2], the Km was found to be 1100 ± 100 µM.
